Reference: DBAASP
≈ marks a conversion by molar mass, not a printed value.

Legend:
Test in all cases: ≥ marks a high value that may be exact or a test limit, other limits are often not marked, values filed in µg/mL are converted to µM
Staphylococcus aureus = test system: Staphylococcus aureus
Escherichia coli = test system: Escherichia coli
Bacillus cereus = test system: Bacillus cereus
[1] = test system: Bacillus subtilis ATCC 23857
[2] = test system: Acinetobacter baumannii ATCC 19606
[3] = test system: Klebsiella pneumoniae ATCC 700603
[4] = test system: Pseudomonas aeruginosa ATCC 27853
[5] = test system: Escherichia coli ATCC 25922
[6] = test system: Staphylococcus epidermidis ATCC 12228
[7] = test system: Staphylococcus aureus ATCC 25923
[8] = test system: Enterococcus faecalis ATCC 29212
[9] = test system: Salmonella enterica subsp. enterica serovar Typhimurium ATCC 14028
Klebsiella pneumoniae = test system: Klebsiella pneumoniae
Salmonella typhimurium = test system: Salmonella typhimurium
[10] = test system: Pseudomonas aeruginosa ATCC 9027

Row | Compound | MIC (Escherichia coli) | MIC (Bacillus cereus) | MIC [1] | MIC [3] | MIC [5] | MIC [7] | other results
1 | CC(C)C[C@H](NC(=O)[C@@H](N)Cc1ccccc1)C(=O)NCC(=O)N[C@H](C(=O)N[C@H](C(=O)N[C@@H](Cc1ccccc1)C(=O)N[C@@H](CCCCN)C(=O)N[C@@H](CCCCN)C(=O)N[C@@H](C)C(=O)N[C@@H](CO)C(=O)N[C@@H](CCCCN)C(=O)N[C@H](C(=O)N[C@@H](Cc1ccccc1)C(=O)N[C@@H](CCCCN)C(=O)N[C@@H](C)C(=O)N[C@H](C(=O)N[C@@H](Cc1ccccc1)C(=O)NCC(=O)N[C@@H](CCCCN)C(=O)N[C@H](C(=O)O)C(C)C)C(C)C)C(C)C)C(C)C)C(C)C [FLGVVFKKASKVFKAVFGKV] | 14.5 µM (≈ 32 µg/mL) | 14.5 µM (≈ 32 µg/mL) |  |  |  |  | MIC (Staphylococcus aureus): 116 µM (≈ 256 µg/mL)
2 | CC[C@H](C)[C@H](NC(=O)[C@H](CCCN=C(N)N)NC(=O)[C@H](CCCN=C(N)N)NC(=O)[C@H](Cc1ccccc1)NC(=O)[C@H](Cc1ccccc1)NC(=O)CN)C(=O)N[C@@H](CCCCN)C(=O)N[C@H](C(=O)N[C@@H](Cc1ccccc1)C(=O)N[C@@H](Cc1ccccc1)C(N)=O)[C@@H](C)O [GFFRRIKTFF] |  |  | 16 µM (≈ 21.1 µg/mL) | 32 µM (≈ 42.2 µg/mL) | 32 µM (≈ 42.2 µg/mL) | 16 µM (≈ 21.1 µg/mL) | MIC [2]: 64 µM (≈ 84.3 µg/mL); MIC [4]: 8 µM (≈ 10.5 µg/mL); MIC [6]: 64 µM (≈ 84.3 µg/mL); MIC [8]: 64 µM (≈ 84.3 µg/mL)
3 | CC[C@H](C)[C@H](NC(=O)CN)C(=O)N[C@@H](CCCN=C(N)N)C(=O)N[C@@H](Cc1c[nH]c2ccccc12)C(=O)N[C@@H](CCCCN)C(=O)N[C@@H](Cc1ccccc1)C(=O)N[C@@H](Cc1c[nH]c2ccccc12)C(=O)N[C@@H](CCCCN)C(=O)N[C@@H](Cc1ccccc1)C(=O)N[C@H](C(N)=O)[C@@H](C)O [GIRWKFWKFT] |  |  | ≥ 64 µM | 64 µM (≈ 87.5 µg/mL) | 32 µM (≈ 43.8 µg/mL) | 32 µM (≈ 43.8 µg/mL) | MIC [2]: 128 µM (≈ 175 µg/mL); MIC [4]: 16 µM (≈ 21.9 µg/mL); MIC [6]: 128 µM (≈ 175 µg/mL); MIC [8]: 128 µM (≈ 175 µg/mL)
4 | CC(C)C[C@H](NC(=O)CN)C(=O)N[C@@H](Cc1c[nH]c2ccccc12)C(=O)N[C@@H](CCCCN)C(=O)N[C@@H](CCCN=C(N)N)C(=O)N[C@@H](Cc1c[nH]c2ccccc12)C(=O)N[C@@H](CCCCN)C(=O)N[C@@H](CCCCN)C(=O)N[C@@H](Cc1ccccc1)C(=O)N[C@@H](Cc1c[nH]c2ccccc12)C(N)=O [GLWKRWKKFW] |  |  | 8 µM (≈ 11.5 µg/mL) | 8 µM (≈ 11.5 µg/mL) | 8 µM (≈ 11.5 µg/mL) | 8 µM (≈ 11.5 µg/mL) | MIC [2]: 16 µM (≈ 22.9 µg/mL); MIC [4]: 4 µM (≈ 5.74 µg/mL); MIC [6]: 16 µM (≈ 22.9 µg/mL); MIC [8]: 32 µM (≈ 45.9 µg/mL)
5 | CC[C@H](C)[C@H](NC(=O)[C@H](Cc1ccc(O)cc1)NC(=O)[C@@H](NC(=O)[C@H](CCCN=C(N)N)NC(=O)[C@H](CC(N)=O)NC(=O)[C@H](CC(N)=O)NC(=O)CN)C(C)C)C(=O)N1CCC[C@H]1C(=O)N[C@@H](CCC(N)=O)C(=O)N1CCC[C@H]1C(=O)N[C@@H](CCCN=C(N)N)C(=O)N1CCC[C@H]1C(=O)N[C@@H](Cc1cnc[nH]1)C(=O)N1CCC[C@H]1C(=O)N[C@@H](CCCN=C(N)N)C(=O)N[C@@H](CC(C)C)C(=O)O [GNNRVYIPQPRPHPRL] |  |  |  |  | > 128 µM |  | MIC [9]: > 128 µM; MIC (Klebsiella pneumoniae): > 128 µM
6 | CC[C@H](C)[C@H](NC(=O)[C@@H](NC(=O)[C@@H]1CCCN1C(=O)[C@@H](NC(=O)[C@@H]1CCCN1C(=O)[C@H](CCCCN)NC(=O)[C@H](CCCCN)NC(=O)[C@H](CO)NC(=O)CN)C(C)C)[C@@H](C)CC)C(=O)N[C@@H](Cc1ccc(O)cc1)C(=O)N[C@@H](C)C(=O)N[C@@H](CC(N)=O)C(=O)N[C@@H](CCCN=C(N)N)C(=O)N[C@@H](CCCN=C(N)N)C(=O)N[C@H](C(=O)NCC(=O)N[C@@H](CCCCN)C(=O)N[C@@H](C)C(=O)N[C@@H](CCC(N)=O)C(=O)N[C@@H](CCCN=C(N)N)C(=O)N[C@@H](CCSC)C(=O)O)[C@@H](C)O [GSKKPVPIIYANRRTGKAQRM] |  |  |  |  |  |  | MIC (Salmonella typhimurium): 20.8 µM (≈ 49.3 µg/mL)
7 | CC[C@H](C)[C@H](NC(=O)[C@H](CC(C)C)NC(=O)[C@H](CO)NC(=O)[C@H](C)NC(=O)[C@@H](NC(=O)[C@H](C)NC(=O)CNC(=O)[C@H](CCCCN)NC(=O)[C@H](Cc1ccccc1)NC(=O)[C@H](CCCCN)NC(=O)[C@@H](NC(=O)[C@H](C)NC(=O)[C@@H](NC(=O)[C@@H](NC(=O)[C@@H]1CCCN1C(=O)[C@H](CO)NC(=O)[C@H](CO)NC(=O)[C@@H](NC(=O)CN)C(C)C)[C@@H](C)CC)C(C)C)C(C)C)C(C)C)C(=O)N[C@@H](CCCCN)C(=O)O [GVSSPIVAVKFKGAVASLIK] | > 130 µM | ≥ 130 µM |  |  |  |  | 
8 | CC[C@H](C)[C@H](NC(=O)[C@H](CCCN=C(N)N)NC(=O)[C@H](CCCCN)NC(=O)[C@H](Cc1c[nH]c2ccccc12)NC(=O)[C@H](Cc1c[nH]c2ccccc12)NC(=O)CN)C(=O)N[C@@H](CCCCN)C(=O)N[C@H](C(=O)N[C@@H](Cc1c[nH]c2ccccc12)C(=O)N[C@@H](Cc1c[nH]c2ccccc12)C(N)=O)[C@@H](C)O [GWWKRIKTWW] |  |  | 8 µM (≈ 11.6 µg/mL) | 8 µM (≈ 11.6 µg/mL) | 8 µM (≈ 11.6 µg/mL) | 4 µM (≈ 5.78 µg/mL) | MIC [2]: 8 µM (≈ 11.6 µg/mL); MIC [4]: 4 µM (≈ 5.78 µg/mL); MIC [6]: 8 µM (≈ 11.6 µg/mL); MIC [8]: 16 µM (≈ 23.1 µg/mL)
9 | CC[C@H](C)[C@H](NC(=O)[C@H](CCCCN)NC(=O)[C@H](CCCCN)NC(=O)[C@H](C)NC(=O)[C@@H](NC(=O)[C@H](C)NC(=O)[C@H](C)NC(=O)[C@H](CC(C)C)NC(=O)[C@H](CCCCN)NC(=O)[C@H](CCCCN)NC(=O)[C@H](CC(C)C)NC(=O)[C@H](CC(N)=O)NC(=O)[C@@H](N)CC(C)C)C(C)C)C(=O)N[C@@H](CC(C)C)C(N)=O [LNLKKLAAVAKKIL] |  |  | 4 µM (≈ 6.09 µg/mL) | 32 µM (≈ 48.7 µg/mL) | 8 µM (≈ 12.2 µg/mL) | 32 µM (≈ 48.7 µg/mL) | MIC [10]: 4 µM (≈ 6.09 µg/mL)
10 | CC[C@H](C)[C@H](NC(=O)CNC(=O)[C@@H](NC(=O)[C@H](CCCCN)NC(=O)[C@H](C)NC(=O)[C@@H](NC(=O)[C@H](C)NC(=O)[C@H](CO)NC(=O)[C@H](CO)NC(=O)[C@H](Cc1ccccc1)NC(=O)[C@H](CC(C)C)NC(=O)[C@@H](NC(=O)[C@@H]1CCCN1C(=O)[C@@H](N)CC(C)C)C(C)C)[C@@H](C)CC)C(C)C)C(=O)N[C@@H](CCCCN)C(=O)N[C@@H](CC(C)C)C(=O)NCC(=O)N[C@@H](C)C(=O)N[C@@H](CCCCN)C(=O)N[C@H](C(=O)O)C(C)C [LPVLFSSAIAKVGIKLGAKV] | > 127 µM | ≥ 127 µM |  |  |  |  | 
11 | CC[C@H](C)[C@H](NC(=O)[C@H](CCCCN)NC(=O)CNC(=O)[C@@H](NC(=O)[C@H](C)NC(=O)[C@H](CO)NC(=O)[C@@H](N)CC(C)C)C(C)C)C(=O)N[C@@H](C)C(=O)N[C@@H](CO)C(=O)N[C@@H](CCCCN)C(=O)N[C@H](C(=O)N[C@H](C(=O)N1CCC[C@H]1C(=O)N[C@@H](CO)C(=O)N[C@H](C(=O)N[C@H](C(=O)NCC(=O)N[C@@H](C)C(=O)N[C@@H](Cc1ccccc1)C(=O)N[C@@H](CCCCN)C(=O)O)[C@@H](C)CC)C(C)C)C(C)C)C(C)C [LSAVGKIASKVVPSVIGAFK] | > 130 µM | ≥ 130 µM |  |  |  |  | 
12 | CC[C@H](C)[C@H](NC(=O)[C@H](CCSC)NC(=O)[C@H](CO)NC(=O)[C@H](Cc1ccccc1)NC(=O)[C@@H](NC(=O)[C@H](CO)NC(=O)[C@@H]1CCCN1C(=O)[C@@H](NC(=O)[C@@H](NC(=O)[C@H](CCCCN)NC(=O)[C@H](CO)NC(=O)[C@H](C)NC(=O)[C@H](CC(C)C)NC(=O)[C@H](CCCCN)NC(=O)CNC(=O)[C@@H](NC(=O)[C@@H](NC(=O)[C@@H]1CCCN1)C(C)C)[C@@H](C)CC)C(C)C)C(C)C)C(C)C)C(=O)N[C@@H](CCCCN)C(=O)N[C@@H](CCCN=C(N)N)C(=O)O [PVIGKLASKVVPSVFSMIKR] | > 119 µM | ≥ 119 µM |  |  |  |  | 
13 | CC[C@H](C)[C@H](NC(=O)[C@H](CO)NC(=O)[C@H](CS)NC(=O)[C@H](Cc1ccc(O)cc1)NC(=O)[C@@H](NC(=O)[C@H](C)NC(=O)[C@@H]1CCCN1C(=O)[C@H](Cc1ccccc1)NC(=O)[C@@H](NC(=O)[C@H](CCCCN)NC(=O)[C@H](CO)NC(=O)[C@H](C)NC(=O)[C@@H](NC(=O)[C@H](CCCN=C(N)N)NC(=O)CNC(=O)[C@H](CC(C)C)NC(=O)[C@H](C)NC(=O)[C@@H](N)CO)C(C)C)C(C)C)C(C)C)C(=O)N[C@H](C(=O)N[C@@H](CCCCN)C(=O)O)[C@@H](C)O [SALGRVASKVFPAVYCSITK] | > 122 µM | ≥ 122 µM |  |  |  |  | 
14 | CC(C)[C@H](NC(=O)[C@H](Cc1ccccc1)NC(=O)[C@@H](NC(=O)[C@@H](NC(=O)[C@@H](NC(=O)[C@H](CCCCN)NC(=O)[C@H](C)NC(=O)[C@@H](N)[C@@H](C)O)C(C)C)C(C)C)C(C)C)C(=O)N[C@@H](CO)C(=O)N[C@@H](Cc1ccccc1)C(=O)N[C@@H](CO)C(=O)N[C@@H](Cc1ccc(O)cc1)C(=O)N[C@H](C(=O)N[C@H](C(=O)N1CCC[C@H]1C(=O)N[C@@H](CCCCN)C(=O)N[C@@H](CCCCN)C(=O)N[C@@H](CCCN=C(N)N)C(=O)N[C@@H](C)C(=O)N[C@@H](CS)C(=O)O)C(C)C)C(C)C [TAKVVVFVSFSYVVPKKRAC] | > 115 µM | ≥ 115 µM |  |  |  |  | 
